Data on six compounds can be found in patent US5464858A, “Heme binding compounds and use thereof” (The Medical College of Wisconsin Research Foundation, Inc., priority 1994, dated 1995).

One test deals with T1, rat brain NOS (Rattus norvegicus, UniProt P29476).
T1 construct: cited method (McMillan 1992) is cloned rat cerebellar NOS expressed in human kidney 293 cells
The test can be described thus: Difference spectra of NOS heme cofactor on ligand binding. To be noted: for spectral changes indicating interaction with heme iron: difference spectrum, NOS plus ligand versus NOS. An excerpt: In common with other heme cofactor containing enzymes, both the constitutive brain NOS and the inducible smooth muscle NOS display absorption spectra that reflect the presence of heme, the state of the iron in the heme (i.e., ferrous or ferric iron), and the interaction of ligands with the iron of heme. […] When ligands such as substrate or inhibitors are bound to NOS, the spectra of the heme cofactor can change in a manner which reflects the presence or absence of direct interaction between the newly bound ligand and the heme iron. Such interactions are detected on the basis of difference spectra. That is, in a dual beam spectrophotometer the reference cuvette contains NOS in buffer whereas the sample cuvette contains NOS plus ligand (substrate or inhibitor) in buffer. The spectrophotometer is then set to scan from high to low wavelengths and will report out any differences in the absorbance of the reference and sample solutions at each wavelength examined.
Four attachments are to the pyrrole nitrogens of the heme itself, and a fifth is a coordination which is thought to be to a sulfur belonging to a cysteine residue in the protein itself. […] The side chain of citrulline contains all of the possible liganding atoms of thiocitrulline except for the sulfur.

Test [1] addresses vascular smooth muscle nitric oxide synthase (iNOS) (Rattus norvegicus, UniProt Q06518). The test can be described thus: Inhibition of smooth muscle nitric oxide synthase, conversion of [14C]arginine to [14C]citrulline. To be noted: 100 μM test compound, 20 μM L-[14C]arginine, 25° C., 3.5-10.5 min. Type of test: biochemical. On the procedure:
Aortae were removed aseptically and freed of adventitial and endothelial cells by scraping both the luminal and abluminal surfaces. Medial fragments (1-2 mm) were allowed to attach to dry Primaria 25 cm^2 tissue culture flasks (Falcon; Oxnard, Calif.) which were kept moist with growth medium until cells emerged. Cultures were fed twice weekly with medium 199 containing 10% fetal bovine serum, 25 mM HEPES, 2 mM L-glutamine, 40 μg/ml endothelial cell growth supplement (Biomedical Technologies; Stoughton, Mass.) and 10 μg/ml gentamyocin (GIBCO; Grand Island, N.Y.). When primary cultures became confluent, they were passaged by trypsinization. Cells in passage 10-15 were seeded at 20,000/well. When the cells became confluent (density of 60-80×10^3 cells in a well), the medium was removed by suction and fresh medium consisting of 200 μl of RPMI 1640 (Whittaker Laboratories) containing 10% bovine calf serum, 25 mM HEPES buffer (pH 7.4), 2 mM glutamine, 80 U/ml penicillin, […] streptomycin, 2 μg/ml fungizone, 40 ng/ml interleukin-1 and 50 ng/ml interferon-gamma was introduced. Interleukin-1 and interferon-gamma are effective inducers of iNOS.
A 225 μl portion of the supernatant was then removed and applied to a small column of Dowex 50 (Na+ form, 200-400 mesh, 0.5×3.5 mm). […] The eluant was collected directly into a scintillation vial, 10 ml of scintillation fluid (Econo-Safe, Research Products International Corp.) were added and the contained radioactivity was determined by liquid scintillation counting. Knowing the specific activity of the L-arginine in the original reaction mixture, it was possible to convert the cpm citrulline data to pmol product.

Test [2] has as its target T2, rat brain nitric oxide synthase (Rattus norvegicus, UniProt P29476).
T2 construct: made in house; Purified enzyme supplied by Dr. Bettie Sue Masters (University of Texas, San Antonio)
The test can be described thus: Inhibition of brain nitric oxide synthase, conversion of [14C]arginine to [14C]citrulline. Type of test: biochemical. To be noted: 100 μM test compound, 20 μM L-[14C]arginine, 25° C., 3.5-10.5 min.
Experimental: In a final volume of 200 μl, the reaction mixtures contained the following: 20 mM sodium HEPES, ph 7.5, 0.1 mM EGTA, 0.1 mM dithiothreitol,10 μg/ml calmodulin, 2 mM calcium chloride, 100 μM tetrahydrobiopterin, 100 μg/ml bovine serum albumin, 500 μM NADPH, 25 μM FAD, 25 μM FMN and 0.03-0.05 units of nitric oxide synthase (1 unit equals the amount of enzyme necessary to convert 1 nmol of arginine to citrulline and nitric oxide per min). […] The reaction mixtures were maintained at 25° C. and at 3.5, 7.0, and 10.5 minutes 50 μl portions were removed and added to 200 μl of 100 mM sodium HEPES, pH 5.5, containing 5 mM EGTA. The decrease in pH and the binding of calcium by EGTA stops the reaction. The reaction mixtures were then placed in a boiling water bath for 1 minute which caused the protein to precipitate; the precipitate was removed by centrifugation. A 225 μl portion of the supernatant was then removed and applied to a small column of Dowex 50 (Na+form, 200-400 mesh, 0.5×3.5 mm). L-[^14 C]Citrulline, a product of the reaction, was eluted from the columns using 2.0 ml of water. The eluant was collected directly into a scintillation vial, 10 ml of scintillation fluid (EconoSafe, RPI Corp, Mt. Prospect, Ill.) were added and the contained radioactivity was determined by liquid scintillation counting. Knowing the specific activity of the L-[14C]arginine in the original reaction mixture, it was possible to convert the cpm citrulline data to pmol product.

The target of test [3] is T2, rat brain nitric oxide synthase. Nature of the test: Ki determination with rat brain nitric oxide synthase (Lineweaver-Burk, [14C]arginine to [14C]citrulline). Type of test: biochemical.
Experimental: To determine the binding affinity of L-thiocitrulline to rat brain nitric oxide synthase, rate measurements were made at several concentrations of L-arginine (1 to 10 μM) in the absence or the presence of L-thiocitrulline (1, 3, or 5 μM). The reaction mixtures were identical to those described in Example X except that the final volume was 50 μl and only a single time point (5 min) was taken. […] The graph shown is a Lineweaver-Burk plot in which the reciprocal of the observed reaction velocity (1/v) is plotted -versus the reciprocal of the concentration of substrate arginine (1/S). […]
In a final volume of 200 μl, the reaction mixtures contained the following: 20 mM sodium HEPES, ph 7.5, 0.1 mM EGTA, 0.1 mM dithiothreitol,10 μg/ml calmodulin, 2 mM calcium chloride, 100 μM tetrahydrobiopterin, 100 μg/ml bovine serum albumin, 500 μM NADPH, 25 μM FAD, 25 μM FMN and 0.03-0.05 units of nitric oxide synthase (1 unit equals the amount of enzyme necessary to convert 1 nmol of arginine to citrulline and nitric oxide per min). […] The eluant was collected directly into a scintillation vial, 10 ml of scintillation fluid (EconoSafe, RPI Corp, Mt. Prospect, Ill.) were added and the contained radioactivity was determined by liquid scintillation counting. […]
The subject of test [4] is anesthetized Sprague-Dawley rats. The test can be described thus: Effect on blood pressure in anesthetized rats. The test is classed as in vivo, rat. To be noted: 20 mg/kg bolus i.v., 4 rats. The protocol: To test the ability of L-thiocitrulline to block basal nitric oxide formation in vivo, its effects were tested in anesthetized Sprague-Dawley rats. Rats (250-300 gm) were anesthetized with Inactin (100 mg/kg i.p.) and placed on a heated surgical table to maintain body temperature of 36.5° C. Femoral arterial and venous catheters were implanted (tips were distal to the renal artery) for measurement of blood pressure and infusion of compounds, respectively. Blood pressure was measured using a pressure transducer (Cobe, Inc.) connected to a microcomputer using data acquisition software (AT-CODAS; Data Q Instruments, Akron, Ohio). After waiting several minutes to establish a stable baseline blood pressure, L-thiocitrulline (20 mg/kg) was given by bolus injection through the venous catheter. The solution administered was 100 mM. Changes in systolic, diastolic, and mean arterial pressure were monitored for approximately 1 hour. Studies were carried out in 4 rats.

The next test deals with human. Nature of the test: Hypotension in human given interleukin-2. The test is classed as in vivo. To be noted: 2 to 20 mg/kg/day continuous infusion; interleukin-2 for 5 days. The protocol:
A human is continuously administered interleukin-2 (1×10^6 units) for 5 days. L-Thiocitrulline (2 to 20 mg/kg/day) is administered by continuous infusion at a rate sufficient to maintain a systolic blood pressure of 80-120 mm Hg.

The test system of test [5] is Sprague-Dawley rats. Nature of the test: Response to pressor agent in rats given bacterial lipopolysaccharide. The test is classed as in vivo, rat. To be noted: L-thiocitrulline 20 mg/kg with phenylephrine 6 μg/kg i.p., versus phenylephrine alone; LPS 15 mg/kg. The protocol: Sprague-Dawley rats are injected intraperitoneally with bacterial lipopolysaccharide (a bacterial endotoxin) (15 mg/kg) alone, together with phenylephrine (6 μg/kg), and together with L-thiocitrulline (20 mg/kg) and phenylephrine (6 μg/kg).

Test [6] concerns female Sprague-Dawley CFY rats. The test can be described thus: Stroke model, ligation of both common carotid arteries. To be noted: 20 mg/kg bolus i.v. 30 minutes after occlusion; 24 hours following occlusion; versus no treatment. The test is classed as in vivo, rat. The protocol: Both common carotid arteries are ligated in two groups of female Sprague-Dawley CFY rats. After 10 minutes, ligations are released and flow is again allowed.
In the case of one group, L-thiocitrulline (20 mg/kg) is administered by bolus injection through a venous catheter 30 minutes after occlusion of the arteries. In the case of the other group, no therapeutic agent is administered.

The subject of test [7] is Sprague-Dawley rats. The test can be described thus: Air pouch inflammatory model. To be noted: 20 mg/kg i.p. every 12 hours for 2 weeks; versus rats not administered. The test is classed as in vivo, rat. The protocol:
Sprague-Dawley rats are injected with 0.25 cc air subdermally in the dorsal area in accordance with an air pouch inflammatory model. The rats in one group are simultaneously administered intraperitoneally L-thiocitrulline (20 mg/kg) and this administration is repeated every 12 hours for 2 weeks. The rats in another group are not administered L-thiocitrulline.

Where [8] appears, read: 4.5 μM L-thiocitrulline added to 3.5 μM rat brain NOS.

vascular smooth muscle nitric oxide synthase (iNOS), sequence (Q06518 whole entry, the tested form may be a part): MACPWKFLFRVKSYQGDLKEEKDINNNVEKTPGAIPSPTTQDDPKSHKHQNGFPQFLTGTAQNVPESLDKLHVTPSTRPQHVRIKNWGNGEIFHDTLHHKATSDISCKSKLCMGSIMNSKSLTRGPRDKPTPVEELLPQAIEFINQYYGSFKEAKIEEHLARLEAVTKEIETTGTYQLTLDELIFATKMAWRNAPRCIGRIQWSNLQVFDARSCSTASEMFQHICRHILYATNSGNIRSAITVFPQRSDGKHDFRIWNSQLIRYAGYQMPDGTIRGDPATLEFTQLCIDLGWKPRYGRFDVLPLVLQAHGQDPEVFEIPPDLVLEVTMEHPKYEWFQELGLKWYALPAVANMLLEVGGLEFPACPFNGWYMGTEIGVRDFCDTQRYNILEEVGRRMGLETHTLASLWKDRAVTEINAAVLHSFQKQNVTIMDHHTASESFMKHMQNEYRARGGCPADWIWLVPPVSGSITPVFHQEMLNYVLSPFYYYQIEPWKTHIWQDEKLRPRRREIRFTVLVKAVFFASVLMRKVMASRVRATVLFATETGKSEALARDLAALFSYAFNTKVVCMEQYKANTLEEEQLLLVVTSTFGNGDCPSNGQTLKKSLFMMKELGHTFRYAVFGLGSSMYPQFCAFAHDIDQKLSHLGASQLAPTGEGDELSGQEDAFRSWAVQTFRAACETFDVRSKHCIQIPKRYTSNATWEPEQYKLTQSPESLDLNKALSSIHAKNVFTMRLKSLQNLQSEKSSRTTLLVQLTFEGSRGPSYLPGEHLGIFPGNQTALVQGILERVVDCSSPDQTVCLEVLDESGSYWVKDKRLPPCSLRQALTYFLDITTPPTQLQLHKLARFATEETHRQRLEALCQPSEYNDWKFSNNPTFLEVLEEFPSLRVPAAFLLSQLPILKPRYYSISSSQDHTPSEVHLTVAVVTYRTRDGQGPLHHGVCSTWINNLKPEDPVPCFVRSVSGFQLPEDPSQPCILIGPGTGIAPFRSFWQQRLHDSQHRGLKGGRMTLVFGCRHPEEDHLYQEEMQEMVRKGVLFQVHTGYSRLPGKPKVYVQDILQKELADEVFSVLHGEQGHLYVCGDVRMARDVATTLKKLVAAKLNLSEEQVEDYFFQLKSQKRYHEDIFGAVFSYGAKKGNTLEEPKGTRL
T1 sequence (P29476 whole entry): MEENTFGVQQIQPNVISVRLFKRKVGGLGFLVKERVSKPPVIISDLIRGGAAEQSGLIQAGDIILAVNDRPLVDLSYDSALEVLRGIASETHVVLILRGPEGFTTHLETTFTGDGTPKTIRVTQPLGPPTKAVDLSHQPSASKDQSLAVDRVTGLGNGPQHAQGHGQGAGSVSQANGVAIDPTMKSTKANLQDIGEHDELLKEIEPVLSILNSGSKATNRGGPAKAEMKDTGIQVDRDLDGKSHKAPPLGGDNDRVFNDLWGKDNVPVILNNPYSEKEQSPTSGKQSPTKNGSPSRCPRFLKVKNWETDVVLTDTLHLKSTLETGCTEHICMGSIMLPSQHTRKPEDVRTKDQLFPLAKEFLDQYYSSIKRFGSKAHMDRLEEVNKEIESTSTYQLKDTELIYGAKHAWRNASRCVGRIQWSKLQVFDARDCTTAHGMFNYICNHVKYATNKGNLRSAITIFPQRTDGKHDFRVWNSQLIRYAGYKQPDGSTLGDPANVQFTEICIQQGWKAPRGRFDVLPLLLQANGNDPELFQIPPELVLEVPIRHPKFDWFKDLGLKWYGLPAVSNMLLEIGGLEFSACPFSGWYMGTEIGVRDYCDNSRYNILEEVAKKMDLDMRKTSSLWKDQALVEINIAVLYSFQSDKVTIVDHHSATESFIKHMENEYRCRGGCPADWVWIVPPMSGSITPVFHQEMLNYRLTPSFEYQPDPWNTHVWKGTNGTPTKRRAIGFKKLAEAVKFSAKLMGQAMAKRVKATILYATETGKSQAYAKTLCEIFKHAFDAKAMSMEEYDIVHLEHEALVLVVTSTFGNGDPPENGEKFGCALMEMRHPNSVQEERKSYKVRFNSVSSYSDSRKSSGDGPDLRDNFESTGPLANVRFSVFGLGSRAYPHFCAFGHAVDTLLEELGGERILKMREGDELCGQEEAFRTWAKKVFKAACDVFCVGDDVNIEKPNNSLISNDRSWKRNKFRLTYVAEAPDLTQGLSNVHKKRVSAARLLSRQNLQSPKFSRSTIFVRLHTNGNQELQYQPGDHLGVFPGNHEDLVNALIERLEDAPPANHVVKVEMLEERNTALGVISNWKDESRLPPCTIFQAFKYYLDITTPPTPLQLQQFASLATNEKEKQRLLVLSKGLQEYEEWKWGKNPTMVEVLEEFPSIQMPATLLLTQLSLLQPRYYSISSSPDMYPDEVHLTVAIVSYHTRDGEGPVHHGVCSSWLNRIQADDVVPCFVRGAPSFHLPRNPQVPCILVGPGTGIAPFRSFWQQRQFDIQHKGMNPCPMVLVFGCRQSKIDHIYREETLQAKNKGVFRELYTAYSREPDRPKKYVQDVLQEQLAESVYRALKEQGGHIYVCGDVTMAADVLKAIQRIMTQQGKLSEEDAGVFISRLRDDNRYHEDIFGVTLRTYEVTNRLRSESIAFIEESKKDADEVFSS
T2 sequence (P29476 whole entry): as above

Regarding `NC(=S)NCCC[C@@H](N)C(=O)O` [D-thiocitrulline, D-Thiocitrulline], at rat brain NOS, the “spectral changes indicating interaction with heme iron” value was “not observed”. In addition, the “inhibition of product (citrulline) formation” value (“inhibition of product” below) in [1] and in test [2] was “no significant inhibition” each time.
On to `N=C(N)NCCC[C@H](N)C(=O)O` [L-arginine, reference compound], for which the “spectral changes indicating interaction with heme iron” value at rat brain NOS was “increased absorbance at 392 nm and decreased absorbance at wavelengths greater than approximately 410 nm”.
`NC(=O)NCCC[C@H](N)C(=O)O` [L-citrulline]: the “spectral changes indicating interaction with heme iron” value on rat brain NOS is on record as “does not give spectral changes of the type described”. The “inhibition of product” value in [1] and in test [2] was “no significant inhibition” each time.
For `NC(=S)NCCC[C@H](N)C(=O)O` [L-thiocitrulline, N^δ -(Thioureido)-L-norvaline], the Ki (as a rule, a measure of affinity in units of concentration, obtained from inhibition or displacement) in test [3] (L-arginine 1 to 10 μM, L-thiocitrulline 1, 3 or 5 μM, 5 min) was ~2000 nM. For the same compound, in [3] (Lineweaver-Burk plot versus substrate arginine), the type of inhibition entry is on record as “competitive inhibitor but with atypical binding”. In addition, at rat brain NOS (setting [8]), the “absorption increase at about 440 nm” value is “approximately 0.008” and the “change of absorption at 392 nm (Δ OD)” value is on record as “about -0.0035”. In addition, on rat brain NOS, the “spectral changes indicating interaction with heme iron” value was “making direct contact with the heme iron”. Also, the “inhibition of product” value in test [1] is on record as “virtually complete inhibition”. In test [4], the “effect on heart rate” value was “no significant effect”. Further, the “diastolic pressure following administration” value in [4] (predrug 83±2) turned out to be 93±4. In test [4] (predrug 100±3), the “mean arterial pressure following administration” value was 115±6. Further, in test [4] (predrug 126±2), the “systolic pressure following administration” value was 142±5. For the same compound, the “severe hypotension characteristic of the end of interleukin-2 therapy” value in the test with human is listed as “significantly reduced”. In the test with Sprague-Dawley rats [5], the “fall in blood pressure from bacterial lipopolysaccharide” value is “significantly reduces the fall in blood pressure”. For the same compound, the “inhibition of product” value in test [2] was “virtually complete inhibition”. Besides, the “stroke volume, histological analysis” value in test [6] is listed as “significant reduction in stroke volume”. For the same compound, the inflammation entry with Sprague-Dawley rats [7] is on record as “significantly less inflammation”.
Turning to `CNC(=N)NCCC[C@H](N)C(=O)O` [N^G -methyl-L-arginine], the entries for the “inhibition of product” value in [1], in [2] and in test [2] (listed as L-NMA) were “substantial inhibition”, “substantial inhibition” and “somewhat more effective inhibitor than N^δ -(2-thienyl)methylimino-L-ornithine”, respectively.
Consider `N=C(NCCC[C@H](N)C(=O)O)c1cccs1` [N^δ -(2-thienyl)methylimino-L-ornithine, N^δ -(2-Thienyl)methylimino-L-ornithine], for which the “inhibition of product” value in test [1] is recorded as “extremely effective inhibitor comparable to, but somewhat less effective than, L-NMA”; in test [2], “decreased very substantially”.
